Laboratory results: patent US20070088067A1, “Novel amidine compounds for treating microbial infections” (priority 2003, published 2007)
Where a name gives a salt, the structure may show the parent alone. Read-outs that look alike come from different tables or passages of the source.

Tests used:
[1] = tested on: Trypanosoma brucei rhodesiense (T.b.r.); test: in vitro effectiveness against Trypanosoma brucei rhodesiense; assay type: cell-based
Text: (§1) These compounds can thus be employed as treatments of second-stage human African trypanosomiasis.

[2] = tested on: Plasmodium falciparum (P.f.); test: in vitro effectiveness against Plasmodium falciparum; assay type: cell-based
Text: as §1

[3] = tested on: Trypanosoma brucei rhodesiense (T.b.r.); test: in vivo effectiveness against T.b.r. (cures); conditions: cures / animals treated
Text: as §1

[4] = Trypanosoma brucei, RHODESIENSE

Structure (SMILES) | IC50 [1, 4] | IC50 ([2]; Plasmodium falciparum) | melting point | IC50 [1] | IC50 [2] | In vivo vs. T.b.r. cures [3]
N#Cc1ccc(-c2cccc(C=O)n2)cc1 [Compound 6, 6-(4-Cyanophenyl)pyridine-2-carbaldehyde] | 21.7 nM | 25.5 nM | 158 to 159 °C |  |  | 
c1cc(-c2nc3ccc(C4=NCCN4)cc3[nH]2)ccc1CCc1ccc(-c2nc3ccc(C4=NCCN4)cc3[nH]2)cc1 [Compound 24, 4,4′-Bis{2-[-6(2-imidazolino]benzimidazolyl}-1,2-diphenylethanetetrahydrochloride] |  |  |  | 393 nM | 19.6 nM | 
CC(=O)O.N=C(N)c1ccc(-c2cccc(-c3nc4ccc(C(=N)N)cc4[nH]3)n2)cc1 [Compound 36, 2-(5-Amidinobenzimidazol-2-yl)-6-(4-amidinophenyl)pyridine acetate salt] | 24 nM | 9.7 nM |  |  |  | 1/4
N=C(N)c1ccc(-c2ccc(-c3nc4cc(C(=N)N)ccc4o3)o2)cc1 [Compound 41] | 11 nM | 32 nM |  |  |  | 4/4
CSc1cc(-c2ccc(-c3ccc(NC(=N)N)c(SC)c3)o2)ccc1NC(=N)N [Compound 42, 2,5-Bis(4-guanidino-3-thiomethoxyphenyl)furan Dihydrochloride] | 57 nM | 66 nM |  |  |  | 
N=C(Nc1ccc(-c2ccc(-c3ccc(NC(=N)c4ccccn4)cc3O)o2)c(O)c1)c1ccccn1 [Compound 43, 2,5-Bis[2-hydroxy-4-(2-pyridylimino)amino]furan Dihydrochloride] | 32 nM | 5.1 nM |  |  |  | 
CCOc1cc(-c2ccc(-c3ccc(NC(=N)N)c(OCC)c3)o2)ccc1NC(=N)N [Compound 44, 2,5-Bis(3-ethoxy-4-guanidinophenyl)furan dihydrochloride] | 40 nM | 14.7 nM |  |  |  | 
Cc1cc(C(=N)N)ccc1-c1ccc(-c2nc3ccc(C(=N)N)cc3[nH]2)o1 [Compound 45, 2-{2-[5(6)-Amidino]benzimidazolyl}-5-[(4-amidino-2-methyl)-phenyl]-furan trihydochloride] |  |  |  | 9.4 nM | 147 nM | 2/4
